In the first assay the target is T1, NOD2 (Homo sapiens, UniProt Q9HC29).
T1 construct: host or cells: HEK-293T-derived HEK-Blue NF-kB/SEAP reporter cells
T1 sequence (Q9HC29 whole entry): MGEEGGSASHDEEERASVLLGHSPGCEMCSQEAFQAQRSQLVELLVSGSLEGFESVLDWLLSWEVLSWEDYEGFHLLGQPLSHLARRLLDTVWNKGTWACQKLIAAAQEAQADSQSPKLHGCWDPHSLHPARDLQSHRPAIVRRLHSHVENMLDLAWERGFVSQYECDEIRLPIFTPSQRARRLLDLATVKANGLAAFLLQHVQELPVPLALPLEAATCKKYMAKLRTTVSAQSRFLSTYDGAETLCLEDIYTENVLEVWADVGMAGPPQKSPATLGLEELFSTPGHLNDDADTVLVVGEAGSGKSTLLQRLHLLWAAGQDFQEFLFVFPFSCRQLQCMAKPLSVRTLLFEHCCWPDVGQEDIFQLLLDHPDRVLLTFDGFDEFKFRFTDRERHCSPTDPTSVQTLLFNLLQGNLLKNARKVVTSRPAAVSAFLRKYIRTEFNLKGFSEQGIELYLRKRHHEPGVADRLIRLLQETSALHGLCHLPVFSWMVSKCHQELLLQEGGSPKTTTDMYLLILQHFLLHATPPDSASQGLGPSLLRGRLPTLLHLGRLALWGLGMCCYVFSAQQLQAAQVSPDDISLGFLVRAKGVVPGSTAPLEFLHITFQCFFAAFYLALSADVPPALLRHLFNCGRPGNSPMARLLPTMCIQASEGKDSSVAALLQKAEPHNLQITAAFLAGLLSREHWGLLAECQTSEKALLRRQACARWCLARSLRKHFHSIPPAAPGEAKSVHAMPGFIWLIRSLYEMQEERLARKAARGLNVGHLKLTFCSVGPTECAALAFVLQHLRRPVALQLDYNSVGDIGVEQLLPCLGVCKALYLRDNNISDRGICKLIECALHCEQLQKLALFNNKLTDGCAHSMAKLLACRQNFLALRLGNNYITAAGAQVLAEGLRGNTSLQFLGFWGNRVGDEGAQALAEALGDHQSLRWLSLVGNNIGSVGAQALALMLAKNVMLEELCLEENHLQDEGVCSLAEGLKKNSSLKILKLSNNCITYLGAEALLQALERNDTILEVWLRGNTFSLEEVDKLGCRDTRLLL
The experiment in a line: NOD2-HEK-Blue NF-κB reporter cell activation assay (NOD2-expressing HEK-293T cells). The class given is cell-based. As to conditions: FIG. 3F. From the text: FIG. 1(A-F). Virtual screening for small molecule NOD2 agonists. A, Docked structure of muramyl dipeptide (MDP) in the leucine-rich repeat (LRR) domain of rabbit NOD2 (pdb 5IRM). […] B, Results of virtual docking approach with reported chemical structures related to MDP. C, Workflow of virtual screening in which a library was generated using carboxylic acids appended to the L-Val-D-Glu dipeptide and then docked to the NOD2 LRR domain. D, Desmuramyl MDP (dMDP) structures resulting from the virtual screen that were synthesized for further screening. Chemicals shown as a pure enantiomer were synthesized as a racemic mixture. E, Activation of NOD2-expressing HEK-293T cells treated for 16 h with 10 µM of the indicated compound using a colorimetric assay. F, Dose-dependent activation of NOD2-expressing HEK-293T cells using the indicated compounds. Numbers in parentheses represent calculated negative log of the half maximal effective concentration (pEC50) values. NOD activation assays were analyzed using a one-way ANOVA with Dunnett's multiple comparisons test compared to the DMSO control. pEC50 values were derived by a three-parameter dose-response nonlinear regression. ****P<0.0001.
FIG. 2(A-G). Structure-activity relationship studies of 3,5-dimethyl-N-arylpyrazole NOD2 agonists. A, Structures of 3,5-dimethyl-N-arylpyrazole structures synthesized for SAR studies. B-F, Dose-dependent activation of NOD2-expressing HEK-293T cells using the indicated compounds grouped by similar structural perturbations. Numbers in parentheses represent calculated pEC50 values. G, Graph of calculated pEC50 values vs. calculated partition coefficient (clogP). Dotted lines show equivalent lipophilic ligand efficiency (LLE) values. Red arrow indicates optimization of the TT007 scaffold to TT030. pEC50 values were derived by a three-parameter dose-response nonlinear regression.
Cell culture. The following cell lines were used and sourced as follows: HEK-Blue NOD2 (InvivoGen, hkb-hnod2), HEK-Blue NOD1 (InvivoGen, hkb-nod1), HEK-Blue Null2 (hkb-null2), and B16-F10 (ATCC CRL-6475). All cell lines were cultured at 37° C. in 5% CO2 in DMEM (ThermoFisher, 11995065) supplemented with 10% fetal bovine serum (FBS), 100 U mL-1 penicillin, and 100 μg mL-1 streptomycin. Cells were maintained at no greater than 70% confluency and subcultured using TrypLE Express. Cell lines were routinely cultured without antibiotics to ensure no bacterial infection and tested for mycoplasma using a Universal Mycoplasma Detection Kit (ATCC 30-1012K). Primary human peripheral mononuclear blood cells (PBMCs) were cultured at 37° C. in 5% CO2 in RPMI 1640 (ThermoFisher, 61870143) supplemented with 10% FBS. All experimental work using human samples was reviewed and approved by the Scripps Research Institutional Review Board (Protocol IRB-21-7816NOD2).
Reporter cell line activation assay. Approximately 24 h before the assay, culture medium for each of the HEK-Blue reporter cell lines was replaced with a 1:1 mixture of DMEM supplemented with 10% FBS and OptiMEM. On the day of the assay, single cell suspensions (150,000 cells/mL) were produced in HEK-Blue detection medium (InvivoGen, hb-det2). Cells were aliquoted at 200 μL per well of a 96-well plate containing 0.2 μL of a 1000× stock of each test compound in DMSO. Cells were then incubated at 37° C. in 5% CO2 for 8-10 h. To measure activity, wells were then gently pipetted up and down to mix the conditioned medium, and absorbance from the colorimetric product of the secreted alkaline phosphatase was measured at 630 nm. In some assays, cells were stimulated for 16 h with compounds as described above in complete DMEM. Then, 20 μL of the conditioned medium was mixed with 180 μL QUANTI-Blue solution (InvivoGen, rep-qbs) and incubated for 2-4 h at 37° C. Activity was then measured by absorbance as described above.
`CCOC(=O)CC[C@H](NC(=O)[C@H](NC(=O)c1c(C)nn(-c2cc[nH]c(=O)c2)c1C)C(C)C)C(=O)OCC` [TT030-ent, Diethyl (3,5-dimethyl-1-(2-oxo-1,2-dihydropyridin-4-yl)-1H-pyrazole-4-carbonyl)-D-valyl-L-glutamate]: the “NOD2 activity in the HEK-Blue in vitro assay” value was “NOD2-inactive”.

Staying with this assay, now noted: calculated, three-parameter dose-response nonlinear regression; read-out: pEC50 (μM), dose-dependent activation of NOD2-expressing HEK-293T cells (converted).
For the compound `CCOC(=O)CC[C@@H](NC(=O)[C@@H](NC(=O)c1c(C)nn(-c2ccc(N)nc2)c1C)C(C)C)C(=O)OCC` [TT026, Diethyl (1-(6-aminopyridin-3-yl)-3,5-dimethyl-1H-pyrazole-4-carbonyl)-L-valyl-D-glutamate], the EC50 was 0.501 µM.

Turning to `CCOC(=O)CC[C@@H](NC(=O)[C@@H](NC(=O)c1c(C)nn(-c2ccc(NC(=O)OC(C)(C)C)nc2)c1C)C(C)C)C(=O)OCC` [TT027, Diethyl (1-(6-((tert-butoxycarbonyl)amino)pyridin-3-yl)-3,5-dimethyl-1H-pyrazole-4-carbonyl)-L-valyl-D-glutamate], the EC50 was 0.158 µM.

For the compound `CCOC(=O)CC[C@@H](NC(=O)[C@@H](NC(=O)c1c(C)nn(-c2ccc3[nH]ccc3c2)c1C)C(C)C)C(=O)OCC` [TT028, Diethyl (1-(1H-indol-5-yl)-3,5-dimethyl-1H-pyrazole-4-carbonyl)-L-valyl-D-glutamate], the EC50 is 0.251 µM.

For `CCOC(=O)CC[C@@H](NC(=O)[C@@H](NC(=O)c1c(C)nn(-c2cnc3[nH]ccc3c2)c1C)C(C)C)C(=O)OCC` [TT029, Diethyl (3,5-dimethyl-1-(1H-pyrrolo[2,3-b]pyridin-5-yl)-1H-pyrazole-4-carbonyl)-L-valyl-D-glutamate], the EC50 is 0.398 µM.

Consider `CCOC(=O)CC[C@@H](NC(=O)[C@@H](NC(=O)c1c(C)nn(-c2ccncc2)c1C)C(C)C)C(=O)OCC` [TT031, Diethyl (3,5-dimethyl-1-(pyridin-4-yl)-1H-pyrazole-4-carbonyl)-L-valyl-D-glutamate], for which the EC50 is 3.16 µM.

With `CCOC(=O)CC[C@@H](NC(=O)[C@@H](NC(=O)c1c(C)nn(-c2ccccn2)c1C)C(C)C)C(=O)OCC` [TT032, Diethyl (3,5-dimethyl-1-(pyridin-2-yl)-1H-pyrazole-4-carbonyl)-L-valyl-D-glutamate], the EC50 is 1.58 µM.

`CCOC(=O)CC[C@@H](NC(=O)[C@@H](NC(=O)c1c(C)nn(-c2cccnc2)c1C)C(C)C)C(=O)OCC` [TT033, Diethyl (3,5-dimethyl-1-(pyridin-3-yl)-1H-pyrazole-4-carbonyl)-L-valyl-D-glutamate]: the EC50 was 2.51 µM.

Take `CCOC(=O)CC[C@@H](NC(=O)[C@@H](NC(=O)c1c(C)nn(-c2cncnc2)c1C)C(C)C)C(=O)OCC` [TT034, Diethyl (3,5-dimethyl-1-(pyrimidin-5-yl)-1H-pyrazole-4-carbonyl)-L-valyl-D-glutamate]: the EC50 was 2.51 µM.

As to `CCOC(=O)CC[C@@H](NC(=O)[C@@H](NC(=O)c1c(C)nn(-c2ccccc2OC)c1C)C(C)C)C(=O)OCC` [TT035, Diethyl (1-(2-methoxyphenyl)-3,5-dimethyl-1H-pyrazole-4-carbonyl)-L-valyl-D-glutamate], the EC50 was 1.58 µM.

As to `CCOC(=O)CC[C@@H](NC(=O)[C@@H](NC(=O)c1c(C)nn(-c2cccc(OC)c2)c1C)C(C)C)C(=O)OCC` [TT036, Diethyl (1-(3-methoxyphenyl)-3,5-dimethyl-1H-pyrazole-4-carbonyl)-L-valyl-D-glutamate], the EC50 is 2.51 µM.

In the case of `CCOC(=O)CC[C@@H](NC(=O)[C@@H](NC(=O)c1cnn(-c2cccnc2)c1)C(C)C)C(=O)OCC` [TT037, diethyl (1-(pyridin-3-yl)-1H-pyrazole-4-carbonyl)-L-valyl-D-glutamate], the EC50 is 5.01 µM.

Regarding `C#CCCC1(CC(=O)N[C@H](C(=O)N[C@H](CCC(=O)OCC)C(=O)OCC)C(C)C)N=N1` [x-alk-VE], the EC50 was 1.58 µM.

A further assay deals with B16-F10 subcutaneous tumors. Kind of assay: B16-F10 tumor growth assay with anti-PD-L1 co-treatment. As to conditions: wild-type C57BL/6 mice, 100 μg α-PD-L1 and 100 μg compound i.p. every other day. The class given is in vivo, mice. On the procedure: FIG. 3(A-H). NOD2 agonist TT030 activates cytokine production in vitro and improves immune checkpoint inhibitor treatment of tumor growth in vivo. A-D, Measurements of secreted cytokine levels from human peripheral mononuclear blood cells (PMBCs) treated with the indicated compounds for 24 h without or with lipopolysaccharide (LPS). E, Structures of TT030 and its enantiomer (TT030-ent). F, Activation of NOD1- and NOD2-expressing HEK-293T cells with the indicated compounds. C12-iE-DAP is a lipophilic version of the NOD1 agonist, iE-DAP. G, Growth profiles of B16-F10 subcutaneous tumors in wild-type C57BL/6 mice treated with 100 μg α-PD-L1 and 100 μg of the indicated compounds every other day starting at Day 7. H, Growth profiles of B16-F10 subcutaneous tumors in wild-type or Nod2^−/− C57BL/6 mice treated with 100 μg α-PD-L1 and 100 μg TT030 every other day starting at Day 7. Cytokine secretion assays and NOD activation assays were analyzed using a one-way ANOVA with Dunnett's multiple comparisons test compared to the DMSO control. Longitudinal tumor growth assays were analyzed using linear mixed-effects model analysis on the log transformed data. ns=not significant, *P<0.05, **P<0.01, ***P<0.001, ****P<0.0001.
Animals. Specific pathogen-free, eight-week old male C57BL/6J (B6, 000664) and B6.129S1—Nod2^tm1Flv/J (Nod2^−/−, 005763 from Flavell Lab, Yale School of Medicine) were obtained from The Jackson Laboratory. Animals were housed in autoclaved caging with SaniChip bedding and enrichment for nest building on a 12-hour light/dark cycle. Animals were provided gamma-irradiated chow (LabDiet, 5053) and sterile drinking water ad libitum. Animal care and experiments were conducted in accordance with NIH guidelines and approved by the Institutional Animal Care and Use Committee at Scripps Research (Protocol AUP-21-095).
Tumor growth assay. B16-F10 cells were subcultured on the day prior to harvesting for tumor inoculation. On the day of injection, cells were harvested using TrypLE Express, washed and resuspended in cold PBS, and counted with a hemocytometer. Cells were then resuspended at 2×10^6 cells mL^−1 in PBS and mixed 1:1 with Matrigel matrix (Corning; growth factor reduced, 356231). Cell suspensions were kept on ice prior to injection. Animals were anesthetized using 3% isoflurane, and their right flank was shaved with hair clippers. Animals were then subcutaneously injected with 100 μL of the cell suspension on their mid-right flank (1×10^5 cells per injection). Once tumors were established at roughly 25-100 mm^3, tumor volume was measured every other day. Digital calipers were used to measure the length and width of each tumor, and tumor volume was calculated as length×[…], where width was the smaller of the two measurements. […]
As for `CCOC(=O)CC[C@H](NC(=O)[C@H](NC(=O)c1c(C)nn(-c2cc[nH]c(=O)c2)c1C)C(C)C)C(=O)OCC` [TT030-ent, Diethyl (3,5-dimethyl-1-(2-oxo-1,2-dihydropyridin-4-yl)-1H-pyrazole-4-carbonyl)-D-valyl-L-glutamate], the “B16 tumor growth over time” value was “not”.

The values are drawn from patent publication US20260176300A1, “N-ARYLPYRAZOLE NOD2 AGONISTS AS PROMOTERS OF IMMUNE CHECKPOINT INHIBITOR THERAPY” (THE SCRIPPS RESEARCH INSTITUTE, priority 2022, published 2026).
